Key:
barnyard grass [1] = assay: Test Example 5: herbicidal effect by foliage application, plastic box (Table 20, symbol H); assay type: in vivo, barnyard grass (Echinochloa crus-galli); details: foliage application, AAH 320 g/ha, three weeks after application
Procedure, shortened: (§1)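 Plants were sown into sterilized diluvial soil under about 1.5 cm cover and kept in a greenhouse at 25° C. to 30° C. Fourteen days on, foliage received an even spray of the diluted emulsion. Herbicidal or crop effect was judged three weeks afterwards.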

windgrass [2] = assay: Test Example 4: herbicidal effect by soil treatment (Table 19, symbol L); assay type: in vivo, windgrass (Apera spica-venti); details: AAH 320 g/ha
Procedure, shortened: (§2)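 Pre-emergence style soil spray: seeds under ~1.5 cm sterilized diluvial soil received a uniform coat of emulsion diluted to the predetermined herbicide amount. Greenhouse 25–30° C; readout at week three on previously defined criteria.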

blackgrass [3] = assay: Test Example 5: herbicidal effect by foliage application, plastic box (Table 20, symbol J); assay type: in vivo, blackgrass (Alopecurus myosuroides); details: foliage application, AAH 320 g/ha, three weeks after application
Procedure, shortened: as §1

southern crabgrass [4] = assay: Test Example 5: herbicidal effect by foliage application, plastic box (Table 20, symbol F); assay type: in vivo, southern crabgrass (Digitaria ciliaris); details: foliage application, AAH 320 g/ha, three weeks after application
Procedure, shortened: as §1

late watergrass = assay: Test Example 1: herbicidal activity, application before weed generation under submerged conditions (Table 16, symbol A); assay type: in vivo, late watergrass (Echinochloa oryzicola); details: 320 g/ha applied herbicide
Procedure, shortened: (§3)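 Emulsion formulation, water-diluted to set dose, was put onto the flooded surface (4 cm depth, alluvial soil) the same day weeds were sown and 2.5-leaf rice transplanted. After 3 weeks at 25-30 °C under glass, each species was rated 0 (≤5% kill) to 5 (≥90% kill).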

blackgrass [5] = assay: Test Example 4: herbicidal effect by soil treatment (Table 19, symbol J); assay type: in vivo, blackgrass (Alopecurus myosuroides); details: AAH 320 g/ha
Procedure, shortened: as §2

velvetleaf [6] = assay: Test Example 4: herbicidal effect by soil treatment (Table 19, symbol M); assay type: in vivo, velvetleaf (Abutilon theophrasti); details: AAH 320 g/ha
Procedure, shortened: as §2

southern crabgrass [7] = assay: Test Example 4: herbicidal effect by soil treatment (Table 19, symbol F); assay type: in vivo, southern crabgrass (Digitaria ciliaris); details: AAH 320 g/ha
Procedure, shortened: as §2

lambsquarters [8] = assay: Test Example 5: herbicidal effect by foliage application, plastic box (Table 20, symbol O); assay type: in vivo, lambsquarters (Chenopodium album); details: foliage application, AAH 320 g/ha, three weeks after application
Procedure, shortened: as §1

velvetleaf [9] = assay: Test Example 5: herbicidal effect by foliage application, plastic box (Table 20, symbol M); assay type: in vivo, velvetleaf (Abutilon theophrasti); details: foliage application, AAH 320 g/ha, three weeks after application
Procedure, shortened: as §1

redroot pigweed [10] = assay: Test Example 4: herbicidal effect by soil treatment (Table 19, symbol N); assay type: in vivo, redroot pigweed (Amaranthus retroflexus); details: AAH 320 g/ha
Procedure, shortened: as §2

green foxtail [11] = assay: Test Example 4: herbicidal effect by soil treatment (Table 19, symbol G); assay type: in vivo, green foxtail (Setaria viridis); details: AAH 320 g/ha
Procedure, shortened: as §2

Italian ryegrass [12] = assay: Test Example 5: herbicidal effect by foliage application, plastic box (Table 20, symbol K); assay type: in vivo, Italian ryegrass (Lolium multiflorum); details: foliage application, AAH 320 g/ha, three weeks after application
Procedure, shortened: as §1

Italian ryegrass [13] = assay: Test Example 4: herbicidal effect by soil treatment (Table 19, symbol K); assay type: in vivo, Italian ryegrass (Lolium multiflorum); details: AAH 320 g/ha
Procedure, shortened: as §2

chickweed [14] = assay: Test Example 5: herbicidal effect by foliage application, plastic box (Table 20, symbol P); assay type: in vivo, common chickweed (Stellaria media); details: foliage application, AAH 320 g/ha, three weeks after application
Procedure, shortened: as §1

lambsquarters [15] = assay: Test Example 4: herbicidal effect by soil treatment (Table 19, symbol O); assay type: in vivo, lambsquarters (Chenopodium album); details: AAH 320 g/ha
Procedure, shortened: as §2

oval-leafed pondweed = assay: Test Example 1: herbicidal activity, application before weed generation under submerged conditions (Table 16, symbol C); assay type: in vivo, oval-leafed pondweed (Monochoria vaginalis); details: 320 g/ha applied herbicide
Procedure, shortened: as §3

Japanese bulrush = assay: Test Example 1: herbicidal activity, application before weed generation under submerged conditions (Table 16, symbol B); assay type: in vivo, Japanese bulrush (Schoenoplectus juncoides); details: 320 g/ha applied herbicide
Procedure, shortened: as §3

rice flat sedge = assay: Test Example 3: herbicidal effect by foliage application, Wagner pot (Table 18, symbol E); assay type: in vivo, rice flat sedge (Cyperus iria); details: 320 g/ha
Procedure, shortened: (§4)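 Plants were sown in alluvial soil held under 0.1–0.5 cm standing water and grown 14 days in a greenhouse at 25–30 °C. An emulsifiable formulation, water-diluted to the set dose, was then sprayed onto the foliage, and effects were scored three weeks later using previously defined criteria.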

persian speedwell [16] = assay: Test Example 4: herbicidal effect by soil treatment (Table 19, symbol R); assay type: in vivo, Persian speedwell (Veronica persica); details: AAH 320 g/ha
Procedure, shortened: as §2

wild oat [17] = assay: Test Example 5: herbicidal effect by foliage application, plastic box (Table 20, symbol I); assay type: in vivo, wild oat (Avena fatua); details: foliage application, AAH 320 g/ha, three weeks after application
Procedure, shortened: as §1

chickweed [18] = assay: Test Example 4: herbicidal effect by soil treatment (Table 19, symbol P); assay type: in vivo, common chickweed (Stellaria media); details: AAH 320 g/ha
Procedure, shortened: as §2

wild oat [19] = assay: Test Example 4: herbicidal effect by soil treatment (Table 19, symbol I); assay type: in vivo, wild oat (Avena fatua); details: AAH 320 g/ha
Procedure, shortened: as §2

barnyard grass [20] = assay: Test Example 4: herbicidal effect by soil treatment (Table 19, symbol H); assay type: in vivo, barnyard grass (Echinochloa crus-galli); details: AAH 320 g/ha
Procedure, shortened: as §2

windgrass [21] = assay: Test Example 5: herbicidal effect by foliage application, plastic box (Table 20, symbol L); assay type: in vivo, windgrass (Apera spica-venti); details: foliage application, AAH 320 g/ha, three weeks after application
Procedure, shortened: as §1

barnyard grass [22] = assay: Test Example 3: herbicidal effect by foliage application, Wagner pot (Table 18, symbol H); assay type: in vivo, barnyard grass (Echinochloa crus-galli); details: 320 g/ha
Procedure, shortened: as §4

Chinese sprangletop = assay: Test Example 3: herbicidal effect by foliage application, Wagner pot (Table 18, symbol D); assay type: in vivo, chinese sprangletop (Leptochloa chinensis); details: 320 g/ha
Procedure, shortened: as §4

green foxtail [23] = assay: Test Example 5: herbicidal effect by foliage application, plastic box (Table 20, symbol G); assay type: in vivo, green foxtail (Setaria viridis); details: foliage application, AAH 320 g/ha, three weeks after application
Procedure, shortened: as §1

persian speedwell [24] = assay: Test Example 5: herbicidal effect by foliage application, plastic box (Table 20, symbol R); assay type: in vivo, Persian speedwell (Veronica persica); details: foliage application, AAH 320 g/ha, three weeks after application
Procedure, shortened: as §1

redroot pigweed [25] = assay: Test Example 5: herbicidal effect by foliage application, plastic box (Table 20, symbol N); assay type: in vivo, redroot pigweed (Amaranthus retroflexus); details: foliage application, AAH 320 g/ha, three weeks after application
Procedure, shortened: as §1

| SMILES | H: barnyard grass, herbicidal effect (barnyard grass [1]) | L: windgrass, herbicidal effect rating (windgrass [2]) | J: blackgrass, herbicidal effect (blackgrass [3]) | F: southern crabgrass, herbicidal effect (southern crabgrass [4]) | Herbicidal effect on A: late watergrass (grade 0-5) (late watergrass) | J: blackgrass, herbicidal effect rating (blackgrass [5]) | M: velvetleaf, herbicidal effect rating (velvetleaf [6]) | F: southern crabgrass, herbicidal effect rating (southern crabgrass [7]) | O: lambsquarters, herbicidal effect (lambsquarters [8]) | M: velvetleaf, herbicidal effect (velvetleaf [9]) | N: redroot pigweed, herbicidal effect rating (redroot pigweed [10]) | G: green foxtail, herbicidal effect rating (green foxtail [11]) | K: Italian ryegrass, herbicidal effect (Italian ryegrass [12]) | K: Italian ryegrass, herbicidal effect rating (Italian ryegrass [13]) | P: chickweed, herbicidal effect (chickweed [14]) | O: lambsquarters, herbicidal effect rating (lambsquarters [15]) | Herbicidal effect on C: oval-leafed pondweed (grade 0-5) (oval-leafed pondweed) | Herbicidal effect on B: Japanese bulrush (grade 0-5) (Japanese bulrush) | herbicidal effect on E (rice flat sedge), rating 0-5 (rice flat sedge) | R: persian speedwell, herbicidal effect rating (persian speedwell [16]) | further results |
| --- | --- | --- | --- | --- | --- | --- | --- | --- | --- | --- | --- | --- | --- | --- | --- | --- | --- | --- | --- | --- | --- |
| Cc1nn(C)c(=O)c(-c2c(-c3ccc(C(C)C)cc3)sc3ccccc23)c1O [1-125] | 5 (Herbicidal rate of 90% or more (almost completely withered)) | 0 (Herbicidal rate of 5% or less (almost no effect)) | 2 (Herbicidal rate of 20% or more and less than 40%) | 3 (Herbicidal rate of 40% or more and less than 70%) | 3 (Herbicidal rate of 40% or more and less than 70%) | 0 (Herbicidal rate of 5% or less (almost no effect)) | 1 (Herbicidal rate of 5% or more and less than 20%) | 1 (Herbicidal rate of 5% or more and less than 20%) | 5 (Herbicidal rate of 90% or more (almost completely withered)) | 5 (Herbicidal rate of 90% or more (almost completely withered)) | 5 (Herbicidal rate of 90% or more (almost completely withered)) | 3 (Herbicidal rate of 40% or more and less than 70%) | 5 (Herbicidal rate of 90% or more (almost completely withered)) | 5 (Herbicidal rate of 90% or more (almost completely withered)) | 5 (Herbicidal rate of 90% or more (almost completely withered)) | 5 (Herbicidal rate of 90% or more (almost completely withered)) | 0 (Herbicidal rate of 5% or less (almost no effect)) | 0 (Herbicidal rate of 5% or less (almost no effect)) | 5 (Herbicidal rate of 90% or more (almost completely withered)) | 5 (Herbicidal rate of 90% or more (almost completely withered)) | I: wild oat, herbicidal effect (wild oat [17]): 0 (Herbicidal rate of 5% or less (almost no effect)); P: chickweed, herbicidal effect rating (chickweed [18]): 1 (Herbicidal rate of 5% or more and less than 20%); I: wild oat, herbicidal effect rating (wild oat [19]): 0 (Herbicidal rate of 5% or less (almost no effect)); H: barnyard grass, herbicidal effect rating (barnyard grass [20]): 3 (Herbicidal rate of 40% or more and less than 70%); L: windgrass, herbicidal effect (windgrass [21]): 5 (Herbicidal rate of 90% or more (almost completely withered)); herbicidal effect on H (barnyard grass), rating 0-5 (barnyard grass [22]): 5 (Herbicidal rate of 90% or more (almost completely withered)); herbicidal effect on D (Chinese sprangletop), rating 0-5 (Chinese sprangletop): 4 (Herbicidal rate of 70% or more and less than 90%); G: green foxtail, herbicidal effect (green foxtail [23]): 5 (Herbicidal rate of 90% or more (almost completely withered)); R: persian speedwell, herbicidal effect (persian speedwell [24]): 5 (Herbicidal rate of 90% or more (almost completely withered)); N: redroot pigweed, herbicidal effect (redroot pigweed [25]): 5 (Herbicidal rate of 90% or more (almost completely withered)) |
| COCOc1c(C)nn(C)c(=O)c1-c1c(-c2ccc(OCc3ccccc3)cc2)sc2ccccc12 [1-135] | 1 (Herbicidal rate of 5% or more and less than 20%) | 0 (Herbicidal rate of 5% or less (almost no effect)) | 0 (Herbicidal rate of 5% or less (almost no effect)) | 0 (Herbicidal rate of 5% or less (almost no effect)) | 4 (Herbicidal rate of 70% or more and less than 90%) | 0 (Herbicidal rate of 5% or less (almost no effect)) | 0 (Herbicidal rate of 5% or less (almost no effect)) | 2 (Herbicidal rate of 20% or more and less than 40%) | 5 (Herbicidal rate of 90% or more (almost completely withered)) | 2 (Herbicidal rate of 20% or more and less than 40%) | 0 (Herbicidal rate of 5% or less (almost no effect)) | 0 (Herbicidal rate of 5% or less (almost no effect)) | 0 (Herbicidal rate of 5% or less (almost no effect)) | 0 (Herbicidal rate of 5% or less (almost no effect)) | 5 (Herbicidal rate of 90% or more (almost completely withered)) | 0 (Herbicidal rate of 5% or less (almost no effect)) | 3 (Herbicidal rate of 40% or more and less than 70%) | 3 (Herbicidal rate of 40% or more and less than 70%) | 3 (Herbicidal rate of 40% or more and less than 70%) | 3 (Herbicidal rate of 40% or more and less than 70%) | I: wild oat, herbicidal effect (wild oat [17]): 0 (Herbicidal rate of 5% or less (almost no effect)); P: chickweed, herbicidal effect rating (chickweed [18]): 0 (Herbicidal rate of 5% or less (almost no effect)); I: wild oat, herbicidal effect rating (wild oat [19]): 0 (Herbicidal rate of 5% or less (almost no effect)); H: barnyard grass, herbicidal effect rating (barnyard grass [20]): 0 (Herbicidal rate of 5% or less (almost no effect)); L: windgrass, herbicidal effect (windgrass [21]): 0 (Herbicidal rate of 5% or less (almost no effect)); herbicidal effect on H (barnyard grass), rating 0-5 (barnyard grass [22]): 2 (Herbicidal rate of 20% or more and less than 40%); herbicidal effect on D (Chinese sprangletop), rating 0-5 (Chinese sprangletop): 3 (Herbicidal rate of 40% or more and less than 70%); G: green foxtail, herbicidal effect (green foxtail [23]): 4 (Herbicidal rate of 70% or more and less than 90%); R: persian speedwell, herbicidal effect (persian speedwell [24]): 4 (Herbicidal rate of 70% or more and less than 90%); N: redroot pigweed, herbicidal effect (redroot pigweed [25]): 5 (Herbicidal rate of 90% or more (almost completely withered)) |

— patent US20230085307A1, “PYRIDAZINONE COMPOUND AND HERBICIDE” (NISSAN CHEMICAL CORPORATION, priority 2019, published 2023)
